Measured values published in article PMC12010006, “Subnanomolar MAS-related G protein-coupled receptor-X2/B2 antagonists with efficacy in human mast cells and disease models” (Signal Transduction and Targeted Therapy, 2025).

Key:
MRGPRX2 = target: T1, MRGPRX2 (Homo sapiens, UniProt Q96LB1); assay: TRUPATH Gαq dissociation assay, LN229 cells expressing MRGPRX2; type: cell-based; design: expressed in transfected cells; host or cells: LN229 human glioblastoma cells; plasmid pLXSN-MRGPRX2 (Addgene #213960); conditions: 100 nM, preincubation
T1 sequence (Q96LB1 1-330): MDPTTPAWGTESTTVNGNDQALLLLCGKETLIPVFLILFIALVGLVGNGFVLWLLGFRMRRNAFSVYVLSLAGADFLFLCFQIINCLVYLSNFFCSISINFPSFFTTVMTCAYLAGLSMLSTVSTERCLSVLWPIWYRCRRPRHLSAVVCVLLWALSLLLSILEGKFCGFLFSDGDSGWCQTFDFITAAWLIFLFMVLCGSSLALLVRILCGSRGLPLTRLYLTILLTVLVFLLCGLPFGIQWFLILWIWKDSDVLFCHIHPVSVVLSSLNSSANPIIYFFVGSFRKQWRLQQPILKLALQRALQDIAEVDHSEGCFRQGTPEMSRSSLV
Method: Fig. 3 Biological characterization of PSB-172656. a Selectivity of PSB-172656 (100 nM) for MRGPRX2 over MRGPRX1, MRGPRX3, and MRGPRX4 measured in β-arrestin assays utilizing β-arrestin-CHO cells with recombinant expression of the respective receptor. MRGPRX1 was activated by BAM-22P (8.5 µM),[19] MRGPRX2 was activated by CST-14 (1 µM), MRGPRX3 was activated by PSB-20294 (10 µM), MRGPRX4 was activated by PSB-18061 (2.6 µM).[44] Data represent mean values ± SEM of 3-4 biological replicates, performed in duplicates. […] Data are means ± SEM of 3 biological replicates, in duplicates. Statistical significance was determined by one-way ANOVA (Tukey’s multiple comparison) test (ns P > 0.05). […] Data are means ± SEM of 3 biological replicates, performed in duplicates. e Shift assay to determine inhibition type of PSB-172656 versus CST-14. […] Extrapolated data were not used for analysis but only shown for a comprehensive view. f Schild plot for the effect of PSB-172656 on the concentration-response curves for CST-14. […]
To further investigate PSB-172656 signaling, direct activation of the relevant G protein subunits, Gαq and Gαi1,[32] was studied. This was assessed using G protein dissociation assays and LN229 cells stably overexpressing MRGPRX2 while transiently expressing the investigated G protein (Fig. 3c, d).[47]

[1] = tested on: muscarinic acetylcholine receptors (mAChRs); assay: Ca2+ assay versus carbachol in LN229-MRGPRX2 cell line; type: cell-based, human; conditions: 10 µM, carbachol 100 µM

For `CCc1c(C(C)C)[nH]c2nc3cc(F)c(F)cc3n2c1=O` [Compound 24, 3-ethyl-7,8-difluoro-2-isopropylbenzo[4,5]imidazo [1,2-a] pyrimidin-4(1H)-one], the “inhibition of CST-14-induced Gαq dissociation” value (MRGPRX2) was “completely inhibited”.
With `CCCc1c(C)[nH]c2nc3ccccc3n2c1=O` [Compound 1, 2-methyl-3-propylbenzo[4,5]imidazo[1,2-a]pyrimidin-4(1H)-one] the “inhibition of signal induced by carbachol” value [1] was “did not inhibit”.
